Source: patent US20060069132A1, “Azolecarboxamide herbicides” (priority 2004, published 2006)

How the values were obtained:
[1] = system: soybean; assay: Test C pre-/postemergence herbicide test; format: in vivo, Glycine max
Summary of the method: (§1)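 Pre/post spray; non-phytotoxic solvent + surfactant. Post-timing 1–4 leaves, 2–18 cm. Read-out: visual % control vs untreated, day 12–14, greenhouse.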

[2] = system: rice; assay: Test B pre-/postemergence herbicide test; format: in vivo, Oryza sativa; conditions: preemergence; for Rice plant response rating (0 to 100 scale): 125 g ai/ha; for Plant response rating, Rice: 500 g ai/ha
Summary of the method: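 Greenhouse pot assay with simultaneous preemergence (treated seed) and postemergence (2–18 cm seedlings) applications of surfactant-containing, non-phytotoxic solvent formulations. Response scored visually 13–15 days later on a 0–100 scale, 100 meaning complete control.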

[3] = system: common ragweed; assay: Test C pre-/postemergence herbicide test; format: in vivo, Ambrosia elatior; set-up: key to Plant response rating, Ragweed: 0 = no effect, 100 = complete control
Summary of the method: as §1

[4] = system: velvetleaf; assay: Test A pre-/postemergence herbicide test; format: in vivo, Abutilon theophrasti
Summary of the method: (§2)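 Greenhouse injury scoring (0–100, complete control = 100) at approximately ten days follows simultaneous pre- and postemergence application. Soil received a directed spray after seeding; seedlings of 2–10 cm at the one- to two-leaf stage were sprayed to runoff.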

[5] = system: cocklebur; assay: Test C pre-/postemergence herbicide test; format: in vivo, Xanthium strumarium; conditions: for Cocklebur plant response rating: 500 g ai/ha
Summary of the method: as §1

[6] = system: morningglory; assay: Test A pre-/postemergence herbicide test; format: in vivo, Ipomoea spp.
Summary of the method: as §2

[7] = system: yellow nutsedge; assay: Test C pre-/postemergence herbicide test; format: in vivo, Cyperus esculentus
Summary of the method: as §1

[8] = system: lambsquarters; assay: Test C pre-/postemergence herbicide test; format: in vivo, Chenopodium album
Summary of the method: as §1

[9] = system: common (oilseed) sunflower; assay: Test C pre-/postemergence herbicide test; format: in vivo, Helianthus annuus; conditions: for Sunflower plant response rating: Preemergence, scale 0 to 100, 0 no effect, 100 complete control
Summary of the method: as §1

[10] = system: rice; assay: Test C flooded paddy test; format: in vivo, Oryza sativa
Summary of the method: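 Injury scored visually against controls on a 0 (no effect) to 100 (complete control) scale, 12 to 14 days after treatment in greenhouse. Flooded paddy plants treated at 2-leaf stage; postemergence plants at 1- to 4-leaf stage, 2 to 18 cm tall.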

[11] = 62 g ai/ha, preemergence, scale 0 to 100
[12] = 125 g ai/ha, scale 0 (no effect) to 100 (complete control), visual, 12 to 14 days, preemergence
[13] = 250 g ai/ha, scale 0-100, preemergence
[14] = Preemergence, 500 g ai/ha, scale 0 to 100, 0 no effect, 100 complete control
[15] = 0 = no effect, 100 = complete control
[16] = visual rating 0-100, 0 no effect, 100 complete control
[17] = Postemergence, 500 g ai/ha, 0 to 100 scale, 0 no effect, 100 complete control
[18] = Postemergence, 2000 g ai/ha, 0 to 100 scale, 0 no effect, 100 complete control
[19] = Preemergence, 2000 g ai/ha, visual rating, 0 to 100 scale (0 no effect, 100 complete control)
[20] = preemergence, 500 g ai/ha, visual injury, 0 to 100 scale (0 no effect, 100 complete control)
[21] = Preemergence, scale 0 to 100, 0 no effect, 100 complete control
[22] = 500 g ai/ha, scale 0 to 100 (0 no effect, 100 complete control), visual, 12 to 14 days, preemergence
[23] = visual rating, 0 = no effect, 100 = complete control
[24] = Postemergence, 500 g ai/ha, scale 0 to 100
[25] = Postemergence, 250 g ai/ha, scale 0 to 100, 0 no effect, 100 complete control
[26] = postemergence, 125 g ai/ha, scale 0 to 100

CC(=NO)c1cccc(NC(=O)c2sc(C(C)(C)C)nc2C)c1 [Compound 195]
Plant response rating, Soybean [1, 11]: 0 | Plant response rating, Soybean [1, 12]: 0 | Plant response rating, Soybean [1, 13]: 0 | Soybean plant response rating [1, 14]: 0 | Rice plant response rating (0 to 100 scale) [2, 15]: 10 | Plant response rating, Rice [2, 16]: 20 | Plant response rating, Ragweed [3, 11]: 20 | Plant response rating, Ragweed [3, 12]: 40 | Plant response rating, Ragweed [3, 13]: 80 | Ragweed plant response rating [3, 14]: 90 | Velvetleaf plant response rating [4, 17]: 0 | Plant response rating, Velvetleaf [4, 18]: 15 | Velvetleaf plant response rating [4, 19]: 15 | Velvetleaf plant response rating [4, 20]: 0 | Plant response rating, Cocklebur [5, 11]: 0 | Plant response rating, Cocklebur [5, 12]: 0 | Plant response rating, Cocklebur [5, 13]: 0 | Cocklebur plant response rating [5, 21]: 0 | Morningglory plant response rating [6, 17]: 10 | Plant response rating, Morningglory [6, 18]: 10 | Morningglory plant response rating [6, 19]: 10 | Morningglory plant response rating [6, 20]: 5 | Plant response rating, Nutsedge, Yellow [7, 11]: 0 | Plant response rating, Nutsedge, Yellow [7, 12]: 0 | Plant response rating, Nutsedge, Yellow [7, 13]: 0 | Nutsedge, Yellow plant response rating [7, 14]: 70 | Plant response rating, Lambsquarters [8, 11]: 0 | Plant response rating, Lambsquarters [8, 12]: 0 | Plant response rating, Lambsquarters [8, 13]: 10 | Lambsquarters plant response rating [8, 14]: 95 | Plant response rating, Sunflower [9, 11]: 0 | Plant response rating, Sunflower [9, 12]: 0 | Plant response rating, Sunflower [9, 13]: 0 | Sunflower plant response rating ([9]; 500 g ai/ha): 10

CCNC(=O)c1cccc(NC(=O)c2sc(C(C)(C)C)nc2CC)n1 [Compound 213]
Plant response rating, Soybean [1, 11]: 0 | Plant response rating, Soybean [1, 12]: 0 | Plant response rating, Soybean [1, 13]: 0 | Plant response rating, Soybean [1, 22]: 0 | Rice plant response rating (0 to 100 scale) [2, 15]: 0 | Plant response rating, Rice [2, 23]: 40 | Plant response rating, Ragweed [3, 11]: 0 | Plant response rating, Ragweed [3, 12]: 0 | Plant response rating, Ragweed [3, 13]: 0 | Plant response rating, Ragweed [3, 22]: 0 | Velvetleaf plant response rating [4, 17]: 30 | Plant response rating, Velvetleaf [4, 18]: 25 | Velvetleaf plant response rating [4, 19]: 35 | Velvetleaf plant response rating [4, 20]: 15 | Plant response rating, Cocklebur [5, 13]: 100 | Cocklebur plant response rating [5, 21]: 100 | Morningglory plant response rating [6, 17]: 20 | Plant response rating, Morningglory [6, 18]: 10 | Morningglory plant response rating [6, 19]: 60 | Morningglory plant response rating [6, 20]: 25 | Plant response rating, Nutsedge, Yellow [7, 11]: 0 | Plant response rating, Nutsedge, Yellow [7, 12]: 0 | Plant response rating, Nutsedge, Yellow [7, 13]: 0 | Plant response rating, Nutsedge, Yellow [7, 22]: 0 | Plant response rating, Lambsquarters [8, 11]: 80 | Plant response rating, Lambsquarters [8, 12]: 95 | Plant response rating, Lambsquarters [8, 13]: 100 | Plant response rating, Lambsquarters [8, 22]: 100 | Plant response rating, Sunflower [9, 11]: 0 | Plant response rating, Sunflower [9, 12]: 0 | Plant response rating, Sunflower [9, 13]: 0 | Plant response rating, Sunflower [9, 22]: 0

CCn1nc(C(C)(C)C)cc1C(=O)Nc1cccc(SC(F)(F)F)c1 [Compound 130]
Plant response rating (0 = no effect, 100 = complete control), Soybean ([1]; 62 g ai/ha, preemergence): 0 | Plant response rating, Soybean [1, 12]: 0 | Soybean plant response rating [1, 24]: 70 | Plant response rating, Soybean [1, 25]: 40 | Soybean plant response rating [1, 14]: 10 | Plant response rating, Soybean [1, 26]: 40 | Plant response rating, Rice [2, 16]: 0 | Plant response rating (0 = no effect, 100 = complete control), Ragweed ([3]; 62 g ai/ha, preemergence): 0 | Plant response rating, Ragweed [3, 12]: 10 | Ragweed plant response rating [3, 24]: 85 | Plant response rating, Ragweed [3, 25]: 85 | Ragweed plant response rating [3, 14]: 80 | Plant response rating, Ragweed [3, 26]: 40 | Velvetleaf plant response rating [4, 17]: 20 | Plant response rating, Velvetleaf [4, 18]: 20 | Velvetleaf plant response rating [4, 19]: 30 | Velvetleaf plant response rating [4, 20]: 20 | Plant response rating (0 = no effect, 100 = complete control), Cocklebur ([5]; 62 g ai/ha, preemergence): 0 | Plant response rating, Cocklebur ([5]; 250 g ai/ha, scale 0 to 100 (0 no effect, 100 complete control), visual, 12 to 14 days, preemergence): 70 | Cocklebur plant response rating ([5]; Postemergence, scale 0 to 100): 100 | Plant response rating, Cocklebur [5, 25]: 90 | Cocklebur plant response rating [5, 21]: 100 | Plant response rating, Cocklebur [5, 26]: 30 | Morningglory plant response rating [6, 17]: 20 | Plant response rating, Morningglory [6, 18]: 25 | Morningglory plant response rating ([6]; Preemergence, 500 g ai/ha, visual rating, 0 to 100 scale (0 no effect, 100 complete control)): 10 | Morningglory plant response rating [6, 19]: 15 | Plant response rating (0 = no effect, 100 = complete control), Nutsedge, Yellow ([7]; 62 g ai/ha, preemergence): 0 | Plant response rating, Nutsedge, Yellow [7, 12]: 0 | Nutsedge, Yellow plant response rating [7, 24]: 0 | Plant response rating, Nutsedge, Yellow [7, 25]: 0 | Nutsedge, Yellow plant response rating [7, 14]: 0 | Plant response rating, Nutsedge, Yellow [7, 26]: 0 | Plant response rating (0 = no effect, 100 = complete control), Lambsquarters ([8]; 62 g ai/ha, preemergence): 10 | Plant response rating, Lambsquarters [8, 12]: 30 | Lambsquarters plant response rating [8, 24]: 100 | Plant response rating, Lambsquarters [8, 25]: 100 | Lambsquarters plant response rating [8, 14]: 80 | Plant response rating, Lambsquarters [8, 26]: 100 | Plant response rating (0 = no effect, 100 = complete control), Sunflower ([9]; 62 g ai/ha, preemergence): 0 | Plant response rating, Sunflower [9, 12]: 0 | Sunflower plant response rating ([9]; 500 g ai/ha): 0

CCn1nc(C2(C)CC2)cc1C(=O)Nc1cc(C(=O)N(C)C)ccc1F [Compound 299]
Plant response rating, Soybean [1, 11]: 55 | Plant response rating, Soybean [1, 13]: 90 | Plant response rating, Soybean [1, 22]: 95 | Rice plant response rating ([10]; 62 g ai/ha, scale 0 to 100): 70 | Rice plant response rating ([10]; 125 g ai/ha, scale 0 to 100 (0 no effect, 100 complete control)): 80 | Rice plant response rating ([10]; 250 g ai/ha, scale of 0 to 100, 0 is no effect, 100 is complete control): 80 | Plant response rating, Rice ([10]; 500 g ai/ha, visual rating after 12 to 14 days, scale 0 to 100 (0 no effect, 100 complete control)): 85 | Rice plant response rating (0 to 100 scale) [2, 15]: 80 | Plant response rating, Rice [2, 23]: 90 | Plant response rating, Ragweed [3, 11]: 100 | Plant response rating, Ragweed [3, 13]: 100 | Plant response rating, Ragweed [3, 22]: 100 | Plant response rating, Cocklebur [5, 11]: 0 | Plant response rating, Cocklebur [5, 12]: 40 | Plant response rating, Cocklebur [5, 13]: 80 | Cocklebur plant response rating [5, 21]: 95 | Plant response rating, Nutsedge, Yellow [7, 11]: 40 | Plant response rating, Nutsedge, Yellow [7, 12]: 50 | Plant response rating, Nutsedge, Yellow [7, 13]: 60 | Plant response rating, Nutsedge, Yellow [7, 22]: 80 | Plant response rating, Lambsquarters [8, 11]: 100 | Plant response rating, Lambsquarters [8, 12]: 100 | Plant response rating, Lambsquarters [8, 13]: 100 | Plant response rating, Lambsquarters [8, 22]: 100 | Plant response rating, Sunflower [9, 11]: 10 | Plant response rating, Sunflower [9, 13]: 100 | Plant response rating, Sunflower [9, 22]: 100
